Literature values, collected in PubChem BioAssay AID1259409 (Chemical Carcinogenesis Research Information System (CCRIS), 2018).
Where “and” joins values, the source holds several entries; their conditions need not be identical. Equal entries are not always repeated.

System: rodent chemically induced tumor inhibition, incidence and multiplicity
Assay: CCRIS tumor inhibitor studies
Details: Dose [Inhibitor]: 0, Route [Inhibitor]: ORAL, Species: RAT

For Nc1nc(N)nc(-c2cc(Cl)ccc2Cl)n1, which “tumour outcome (control, treated, inhibition, significance)” value (Carcinogen: DIETHYLNITROSAMINE, 55-18-5, 125 PPM IN DIET BEGINNING 1 WK POST CARCINOGEN DOSE (STUDY DURATION: 36 WK), Strain/Sex: F344/MALE, Target Tissue: Type of Lesion: LIVER: TUMOR, Dose [Carcinogen]: 200 MG/KG BW ONCE, Promoter: PHENOBARBITAL, 50-06-6) is on record?
The value was 14/14 (100%), 0/15 (0%), 100%, not calculated.

What about the “tumour outcome (control, treated, inhibition, significance)” value (Carcinogen: N-METHYL-N'-NITRO-N-NITROSOGUANIDINE, 70-25-7, 100 PPM IN DIET FOR FIRST 25 WK (STUDY DURATION: 55 WK), Strain/Sex: WISTAR/MALE, Target Tissue: Type of Lesion: DUODENUM: ADENOMA, ADENOCARCINOMA OR SARCOMA, Dose [Carcinogen]: 100 MG/L IN DRINKING WATER FOR FIRST 25 WK, Promoter: GLYOXAL, 107-22-2) of the same compound?
Its value is 6/12 (50%), 4/16 (25%), 50%, not significant.

And the “tumour outcome (control, treated, inhibition, significance)” value (Carcinogen: N-METHYL-N'-NITRO-N-NITROSOGUANIDINE, 70-25-7, 100 PPM IN DIET FOR FIRST 25 WK (STUDY DURATION: 55 WK), Strain/Sex: WISTAR/MALE, Target Tissue: Type of Lesion: FORESTOMACH: PAPILLOMA, Dose [Carcinogen]: 100 MG/L IN DRINKING WATER FOR FIRST 25 WK, Promoter: GLYOXAL, 107-22-2)?
The value was 3/12 (25%), 1/16 (6%), 76%, not significant.

And the “tumour outcome (control, treated, inhibition, significance)” value (Carcinogen: N-METHYL-N'-NITRO-N-NITROSOGUANIDINE, 70-25-7, 100 PPM IN DIET FOR FIRST 25 WK (STUDY DURATION: 55 WK), Strain/Sex: WISTAR/MALE, Target Tissue: Type of Lesion: GASTROINTESTINAL TRACT (UPPER): BENIGN OR MALIGNANT TUMOR, Dose [Carcinogen]: 100 MG/L IN DRINKING WATER FOR FIRST 25 WK, Promoter: GLYOXAL, 107-22-2)?
The value was 11/12 (92%), 9/16 (56%), 39%, p<0.05.

And the “tumour outcome (control, treated, inhibition, significance)” value (Carcinogen: N-METHYL-N'-NITRO-N-NITROSOGUANIDINE, 70-25-7, 100 PPM IN DIET FOR FIRST 25 WK (STUDY DURATION: 55 WK), Strain/Sex: WISTAR/MALE, Target Tissue: Type of Lesion: GLANDULAR STOMACH: ADENOMA, ADENOCARCINOMA OR SARCOMA, Dose [Carcinogen]: 100 MG/L IN DRINKING WATER FOR FIRST 25 WK, Promoter: GLYOXAL, 107-22-2)?
Its value is 9/12 (75%), 6/16 (38%), 49%, p<0.05.

What about the “tumour outcome (control, treated, inhibition, significance)” value (Carcinogen: N-METHYL-N'-NITRO-N-NITROSOUGUANIDINE, 70-25-7, 25 PPM IN DIET FOR THE DURATION OF THE STUDY (STUDY DURATION: 55 WK), Strain/Sex: WISTAR/MALE, Target Tissue: Type of Lesion: BILE DUCT: CHOLANGIOMA, Dose [Carcinogen]: 100 MG/L IN DRINKING WATER FOR FIRST 25 WK, Promoter: GLYOXAL, 107-22-2) of the same compound?
Its value is 1/12 (8%), 0/12 (0%), 100%, not significant.

What about the “tumour outcome (control, treated, inhibition, significance)” value (Carcinogen: N-METHYL-N'-NITRO-N-NITROSOUGUANIDINE, 70-25-7, 25 PPM IN DIET FOR THE DURATION OF THE STUDY (STUDY DURATION: 55 WK), Strain/Sex: WISTAR/MALE, Target Tissue: Type of Lesion: FORESTOMACH: PAPILLOMA, Dose [Carcinogen]: 100 MG/L IN DRINKING WATER FOR FIRST 25 WK, Promoter: GLYOXAL, 107-22-2) of the same compound?
The value was 3/12 (25%), 1/12 (8%), 68%, not significant.

What about the “tumour outcome (control, treated, inhibition, significance)” value (Carcinogen: N-METHYL-N'-NITRO-N-NITROSOUGUANIDINE, 70-25-7, 25 PPM IN DIET FOR THE DURATION OF THE STUDY (STUDY DURATION: 55 WK), Strain/Sex: WISTAR/MALE, Target Tissue: Type of Lesion: GASTROINTESTINAL TRACT (UPPER): BENIGN OR MALIGNANT TUMOR, Dose [Carcinogen]: 100 MG/L IN DRINKING WATER FOR FIRST 25 WK, Promoter: GLYOXAL, 107-22-2) of the same compound?
Its value is 11/12 (92%), 7/12 (58%), 37%, not significant.

What about the “tumour outcome (control, treated, inhibition, significance)” value (Carcinogen: N-METHYL-N'-NITRO-N-NITROSOUGUANIDINE, 70-25-7, 25 PPM IN DIET FOR THE DURATION OF THE STUDY (STUDY DURATION: 55 WK), Strain/Sex: WISTAR/MALE, Target Tissue: Type of Lesion: GLANDULAR STOMACH: ADENOMA, ADENOCARCINOMA OR SARCOMA, Dose [Carcinogen]: 100 MG/L IN DRINKING WATER FOR FIRST 25 WK, Promoter: GLYOXAL, 107-22-2) of the same compound?
Its value is 9/12 (75%), 5/12 (42%), 44%, not significant.

And the “tumour outcome (control, treated, inhibition, significance)” value (Carcinogen: N-METHYL-N'-NITRO-N-NITROSOUGUANIDINE, 70-25-7, 100 PPM IN DIET FOR FIRST 25 WK (STUDY DURATION: 55 WK), Strain/Sex: WISTAR/MALE, Target Tissue: Type of Lesion: BILE DUCT: CHOLANGIOMA, Dose [Carcinogen]: 100 MG/L IN DRINKING WATER FOR FIRST 25 WK, Promoter: GLYOXAL, 107-22-2)?
Its value is 1/12 (8%), 0/12 (0%), 100%, not significant and 1/12 (8%), 0/15 (0%), 100%, not significant.

What about the “tumour outcome (control, treated, inhibition, significance)” value (Carcinogen: N-METHYL-N'-NITRO-N-NITROSOUGUANIDINE, 70-25-7, 100 PPM IN DIET FOR FIRST 25 WK (STUDY DURATION: 55 WK), Strain/Sex: WISTAR/MALE, Target Tissue: Type of Lesion: DUODENUM: ADENOMA, ADENOCARCINOMA OR SARCOMA, Dose [Carcinogen]: 100 MG/L IN DRINKING WATER FOR FIRST 25 WK, Promoter: GLYOXAL, 107-22-2) of the same compound?
Its value is 6/12 (50%), 4/12 (33%), 34%, not significant and 6/12 (50%), 4/15 (20%), 60%, not significant.

What about the “tumour outcome (control, treated, inhibition, significance)” value (Carcinogen: N-METHYL-N'-NITRO-N-NITROSOUGUANIDINE, 70-25-7, 100 PPM IN DIET FOR FIRST 25 WK (STUDY DURATION: 55 WK), Strain/Sex: WISTAR/MALE, Target Tissue: Type of Lesion: FORESTOMACH: PAPILLOMA, Dose [Carcinogen]: 100 MG/L IN DRINKING WATER FOR FIRST 25 WK, Promoter: GLYOXAL, 107-22-2) of the same compound?
The value was 3/12 (25%), 3/12 (25%), 0%, not significant and 3/12 (25%), 1/15 (7%), 72%, not significant.

And the “tumour outcome (control, treated, inhibition, significance)” value (Carcinogen: N-METHYL-N'-NITRO-N-NITROSOUGUANIDINE, 70-25-7, 100 PPM IN DIET FOR FIRST 25 WK (STUDY DURATION: 55 WK), Strain/Sex: WISTAR/MALE, Target Tissue: Type of Lesion: GASTROINTESTINAL TRACT (UPPER): BENIGN OR MALIGNANT TUMOR, Dose [Carcinogen]: 100 MG/L IN DRINKING WATER FOR FIRST 25 WK, Promoter: GLYOXAL, 107-22-2)?
Its value is 11/12 (92%), 5/12 (42%), 54%, p<0.02 and 11/12 (92%), 6/15 (40%), 57%, p<0.01.

And the “tumour outcome (control, treated, inhibition, significance)” value (Carcinogen: N-METHYL-N'-NITRO-N-NITROSOUGUANIDINE, 70-25-7, 100 PPM IN DIET FOR FIRST 25 WK (STUDY DURATION: 55 WK), Strain/Sex: WISTAR/MALE, Target Tissue: Type of Lesion: GLANDULAR STOMACH: ADENOMA, ADENOCARCINOMA OR SARCOMA, Dose [Carcinogen]: 100 MG/L IN DRINKING WATER FOR FIRST 25 WK, Promoter: GLYOXAL, 107-22-2)?
The value was 9/12 (75%), 3/12 (25%), 67%, p<0.02 and 9/12 (75%), 5/15 (33%), 56%, p<0.02.
